Tests used:
Format in all cases: cell-based
NK2 = molecular target: T1, NK2 (Homo sapiens, UniProt P21452); experiment: Signal transduction (ST), intracellular Ca++ (FLIPR), NK2; settings: read-out: pIC50 NK2 (converted)
T1 sequence (P21452 1-398): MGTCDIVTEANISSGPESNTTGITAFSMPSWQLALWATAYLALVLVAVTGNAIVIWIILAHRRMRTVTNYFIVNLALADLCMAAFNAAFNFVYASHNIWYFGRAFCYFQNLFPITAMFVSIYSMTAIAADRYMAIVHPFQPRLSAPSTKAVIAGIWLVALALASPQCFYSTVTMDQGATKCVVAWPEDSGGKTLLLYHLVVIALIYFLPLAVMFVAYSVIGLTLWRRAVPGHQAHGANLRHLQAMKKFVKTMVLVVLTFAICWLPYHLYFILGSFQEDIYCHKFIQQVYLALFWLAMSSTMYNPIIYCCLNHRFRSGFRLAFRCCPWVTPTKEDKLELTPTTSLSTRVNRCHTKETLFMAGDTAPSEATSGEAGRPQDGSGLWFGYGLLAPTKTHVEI

NK1 = NK1 (Homo sapiens, UniProt P25103); experiment: Signal transduction (ST), intracellular Ca++ (FLIPR), NK1 antagonistic activity; settings: read-out: pIC50 NK1 (converted)
Chain of NK1 (P25103 whole entry): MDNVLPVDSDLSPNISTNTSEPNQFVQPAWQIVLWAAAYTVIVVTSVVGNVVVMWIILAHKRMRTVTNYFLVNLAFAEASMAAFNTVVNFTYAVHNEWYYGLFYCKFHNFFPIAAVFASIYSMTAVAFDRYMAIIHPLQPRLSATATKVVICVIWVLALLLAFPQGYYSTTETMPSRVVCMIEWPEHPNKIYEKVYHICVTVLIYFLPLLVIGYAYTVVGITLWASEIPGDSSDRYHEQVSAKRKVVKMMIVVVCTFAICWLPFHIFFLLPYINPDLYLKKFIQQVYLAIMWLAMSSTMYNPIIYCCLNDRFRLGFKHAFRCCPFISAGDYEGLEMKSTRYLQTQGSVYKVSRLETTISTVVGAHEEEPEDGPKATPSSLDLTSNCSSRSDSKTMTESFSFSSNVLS
Method in brief: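 Confluent cells loaded with 2 μM Fluo3 (1 h, 37 °C, probenecid), preincubated 20 min at RT with antagonist concentration range, then agonist added. Peak Ca++ transient read by FLIPR in Krebs buffer pH 7.4; IC50 by non-linear regression.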

NK3 = molecular target: T2, NK3 (Homo sapiens, UniProt P29371); experiment: Signal transduction (ST), intracellular Ca++ (FLIPR), NK3; settings: read-out: pIC50 NK3 (converted)
T2 sequence (P29371 1-465): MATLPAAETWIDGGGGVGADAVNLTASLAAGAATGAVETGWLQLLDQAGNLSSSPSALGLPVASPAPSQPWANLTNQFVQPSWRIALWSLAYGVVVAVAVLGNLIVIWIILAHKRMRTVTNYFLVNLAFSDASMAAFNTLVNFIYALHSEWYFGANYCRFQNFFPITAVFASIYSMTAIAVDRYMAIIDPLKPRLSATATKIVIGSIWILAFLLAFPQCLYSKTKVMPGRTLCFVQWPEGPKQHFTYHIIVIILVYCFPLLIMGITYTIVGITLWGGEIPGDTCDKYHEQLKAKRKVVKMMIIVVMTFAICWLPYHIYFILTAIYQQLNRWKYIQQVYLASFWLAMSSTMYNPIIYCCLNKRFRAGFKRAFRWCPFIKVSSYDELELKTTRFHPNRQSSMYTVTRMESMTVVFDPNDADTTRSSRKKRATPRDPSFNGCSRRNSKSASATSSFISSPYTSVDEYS

Row | SMILES | IC50 (NK2) | IC50 (NK1) | IC50 (NK3)
1 | O=C(c1sccc1CCO)N1CCC(N2CCN([C@H]3CCN(C(=O)c4cc(C(F)(F)F)cc(C(F)(F)F)c4)[C@H](Cc4ccccc4)C3)CC2)C1 (stereo partly drawn) [Compound 369] | 3980 nM | 12.6 nM | 631 nM
2 | CC1(C)OCC(CNC(=NC#N)N2CCC(N3CCN(C4CCN(C(=O)c5cc(C(F)(F)F)cc(C(F)(F)F)c5)C(Cc5ccccc5)C4)CC3)C2)O1 (stereo not drawn) [Compound 370] | 6310 nM | 20 nM | 7940 nM
3 | N#CN=C(N1CCOCC1)N1CCC(N2CCN([C@H]3CCN(C(=O)c4cc(C(F)(F)F)cc(C(F)(F)F)c4)[C@H](Cc4ccccc4)C3)CC2)C1 (stereo partly drawn) [Compound 371] | 7940 nM | 15.8 nM | 5010 nM
4 | CC1(C)OC(=O)C[C@H]1C(=O)N1CCC(N2CCN([C@H]3CCN(C(=O)c4cc(C(F)(F)F)cc(C(F)(F)F)c4)[C@H](Cc4ccccc4)C3)CC2)C1 (stereo partly drawn) [Compound 404] | 5010 nM | 6.31 nM | 79.4 nM

Further lines, results first:

Row | IC50 (NK2) | IC50 (NK1) | IC50 (NK3) | SMILES
5 | 1580 nM | 12.6 nM | 2000 nM | COc1ccc(S(=O)(=O)N2CCC(N3CCN([C@H]4CCN(C(=O)c5cc(C(F)(F)F)cc(C(F)(F)F)c5)[C@H](Cc5ccccc5)C4)CC3)C2)cc1OC (stereo partly drawn) [Compound 378]
6 | 3160 nM | 251 nM | 1260 nM | O=C(c1cc(C(F)(F)F)cc(C(F)(F)F)c1)N1CC[C@H](N2CCN(C3CCN(S(=O)(=O)c4ccccc4COCc4ccccc4)C3)CC2)C[C@H]1Cc1ccccc1 (stereo partly drawn) [Compound 401]
7 | 2510 nM | 20 nM | 1000 nM | COc1ccc(OC)c(S(=O)(=O)N2CCC(N3CCN([C@H]4CCN(C(=O)c5cc(C(F)(F)F)cc(C(F)(F)F)c5)[C@H](Cc5ccccc5)C4)CC3)C2)c1 (stereo partly drawn) [Compound 411]
8 | 2510 nM | 79.4 nM | 5010 nM | COc1ccc(Cl)cc1S(=O)(=O)N1CCC(N2CCN([C@H]3CCN(C(=O)c4cc(C(F)(F)F)cc(C(F)(F)F)c4)[C@H](Cc4ccccc4)C3)CC2)C1 (stereo partly drawn) [Compound 412]

From patent US7795261B2, “Substituted 1-piperidin-4-yl-4-pyrrolidin-3-yl-piperazine derivatives and their use as neurokinin antagonists” (Janssen Pharmaceutica NV, priority 2002, dated 2010)
